Assay results reported in US8318184B2, “MGLU2 agonists” (Eli Lilly and Company, priority 2009, dated 2012).

Legend:
Sprague-Dawley rats = assay: Reversal of Phencyclidine (PCP)-Induced Hyperlocomotor Activity in Rats; type: in vivo; details: Rattus norvegicus
Source text: Administration of NMDA receptor antagonists, such as ketamine or phencyclidine (PCP), produces psychotomimetic-like effects in humans that are similar to those symptoms observed in patients with schizophrenia.
Motor activity is monitored by placing individual male, Sprague-Dawley (Harlan, Indianapolis, Ind.) rats in transparent, plastic shoe-box cages of the dimensions 45×25×20 cm, with 1 cm depth of wood chips as bedding, and a metal grill on top of the cage. Motor monitors (Kinder Scientific) consist of a rectangular rack of 12 photobeams arranged in an 8×4 formation, (or a high density grouping of 22 in a 15×7 pattern) at a height of 5 cm, with a second rack (for measuring rearing behaviors) at a height of 15 cm. The shoe box cage is placed inside of these racks, with the racks on a 3 foot high tabletop in an isolated room. A compound of the present invention is dosed (intraperitoneal route (i.p.), non-prodrug) within a range of 0.3-10 mg/kg, 30 minutes prior to a 5 mg/kg challenge dose of phencyclidine (PCP). A compound of the present invention is dosed (oral route, prodrug) within a range of 0.3-30 mg/kg, in overnight fasted rats, 4 hours prior to a 5 mg/kg challenge dose of PCP. On the test day, rats are placed in the test cage and allowed to acclimate for 30 minutes prior to PCP challenge; rats are monitored for an additional 60 minutes following PCP administration.
Data analysis and ED50 calculations are conducted using GraphPad Prism (San Diego, Calif. USA). Power analyses have determined that 8-10 rats per group are needed to have appropriate statistical power for detecting treatment differences (power=0.8). A one-way analysis of variance (ANOVA) with a post-hoc Dunnett's multiple comparison test is conducted on the total 60 minute locomotor activity. ED50 calculations are performed using non-linear regression curve fitting on percent reversal transformed data for each dose.

ICR(CD-1) mice = assay: Reversal of Phencyclidine (PCP)-Induced Hyperlocomotor Activity in Mice; type: in vivo, mouse; details: i.p.
Source text: This assay for Reversal of Phencyclidine (PCP)-Induced Hyperlocomotor Activity in Mice is run substantially as the Reversal of Phencyclidine (PCP)-Induced Hyperlocomotor Activity in Rats assay provided above, using mice instead of rats and with the changes noted below.
Motor activity is monitored by placing individual male, ICR(CD-1), (Harlan, Indianapolis, Ind.) mice in transparent, plastic shoe-box cages of the dimensions 45×25×20 cm, with 0.5 cm depth of wood chips as bedding, and plastic lid on top of the cage. Motor monitors (Kinder Scientific) consist of a rectangular rack of 12 photobeams arranged in an 8×4 formation, (or a high density grouping of 22 in a 15×7 pattern) at a height of 2.5 cm. The shoe box cage is placed inside of these racks, with the racks on a 3 foot high tabletop in an isolated room. A compound of the present invention is dosed (intraperitoneal route, non-prodrug) usually within a range of 0.3-30 mg/kg; though higher doses may be used, 30 minutes prior to a 7.5 mg/kg challenge dose of phencyclidine (PCP). On the test day, mice are placed in the test cage and allowed to acclimate for 45 minutes prior to PCP challenge; mice are monitored for an additional 60 minutes following PCP administration.
Power analyses have determined that 7-8 mice per group are needed to have appropriate statistical power for detecting treatment differences (power=0.8).

Fischer F-344 rats = assay: Attenuation of Stress-Induced Hyperthermia in Rats; type: in vivo, rat; details: dose producing 35% reduction in stress-induced hyperthermic response
Source text: In many anxiety disorders, hyperthermia occurs as part of the pathology and is considered a symptom of the disease. Compounds which attenuate stress-induced hyperthermia in animals are believed to be useful in treating anxiety disorders in humans. Generalized anxiety disorder is an example of such disorders that may be treated with such compounds. The conventional and minimally-invasive method for analyzing stress-induced hyperthermia is by measuring body temperature, and stress-induced increases in body temperature, via rectal thermometer. Male Fischer F-344 rats (Harlan, Indianapolis, Ind., USA) weighing between 275-350 g are tested. All animals are individually-housed with food and automated water available ad libitum, and maintained on a 12 h light/dark cycle (lights on at 06:00). Animals are fasted for approximately 12-18 hours before the experiment, which is conducted during the light phase. Rats are dosed two hours prior to the experiment by either intraperitoneal (i.p., non-prodrug) or per os (p.o., prodrug) route of administration in a dose volume of 1 mL/kg. […]
After the pretreatment period, rats are taken individually to a brightly lit adjacent room where baseline body temperatures are determined by insertion of a rectal probe lubricated with mineral oil. Body temperature is assessed using a […] […] Ten minutes later a second body temperature measurement is recorded (T2). […]

Row | SMILES | ED50 (Sprague-Dawley rats; 0.5 h, i.p., 30 minutes prior to 5 mg/kg PCP) [mg/kg] | inhibition of PCP evoked ambulations (ICR(CD-1) mice; multiple dose experiment, 10 mg/kg dose) [%] | inhibition of PCP evoked ambulations (ICR(CD-1) mice; single dose experiment of 10 mg/kg) [%] | T35 (Fischer F-344 rats; i.p.) [mg/kg] | ED50 (Sprague-Dawley rats; p.o., overnight fasted, 4 hours prior to 5 mg/kg PCP) [mg/kg] | T35 (Fischer F-344 rats; p.o.) [mg/kg]
1 | N[C@@]1(C(=O)O)C[C@@H](Sc2nnc[nH]2)[C@H]2[C@H](C(=O)O)[C@H]21 [Example 1, (1R,2S,4R,5R,6R)-2-Amino-4-(4H-1,2,4-triazol-3-ylsulfanyl)bicyclo[3.1.0]hexane-2,6-dicarboxylic acid] | 1.23 | 81±5 | 78±9 | 1.27 |  | 
2 | C[C@H](N)C(=O)N[C@@]1(C(=O)O)C[C@@H](Sc2nnc[nH]2)[C@H]2[C@H](C(=O)O)[C@H]21.Cl [Example 2, (1R,2S,4R,5R,6R)-2-[[(2S)-2-Aminopropanoyl]amino]-4-(1H-1,2,4-triazol-3-ylsulfanyl)bicyclo[3.1.0]hexane-2,6-dicarboxylic acid hydrochloride] |  |  |  |  | 2.94 | 16.2
